As usually defined, the Kd is the concentration at which binding is half-saturated.

In assay [1] the test system is PSMA-negative PC-3 flu tumor cells. As to the kind of experiment: Cell uptake, PSMA-negative cells. It counts as cell-based. Particulars: after 4 h. The text has this:
Cell uptake and internalization of ^177Lu-Ibu-PSMA, ^177Lu-Ibu-Dα-PSMA, ^177Lu-Ibu-Dβ-PSMA, ^177Lu-Ibu-N-PSMA and ^177Lu-Ibu-DAB-PSMA were investigated using PSMA-positive PC-3 PIP and PSMA-negative PC-3 flu tumor cells kindly provided by Prof. Dr. Martin Pomper (John Hopkins Institutions, Baltimore, U.S.; Eiber, M.; Fendler, W. P.; Rowe, S. P.; Calais, J.; Hofman, M. S.; Maurer, T.; Schwarzenboeck, S. M.; Kratowchil, C.; Herrmann, K.; Giesel, F. L. Prostate-specific membrane antigen ligands for imaging and therapy. J Nucl Med 2017, 58, (Suppl 2), 67S-76S). Each radioligand was investigated by the performance of experiments performed 3 times in triplicate with PC-3 PIP tumor cell and once in triplicate with PC-3 flu tumor cells.
Cell uptake and internalization of ^177Lu-Ibu-sPSMA were investigated using PSMA-positive PC-3 PIP and PSMA-negative PC-3 flu tumor cells kindly provided by Prof. Dr. Martin Pomper (Johns Hopkins University School of Medicine, Baltimore, Md., U.S.A.) (Eiber, et al.; J Nucl Med 2017, 58, (Suppl 2), 67S-76S). ^177Lu-Ibu-sPSMA was investigated by performing experiments 3 times in 6 replicates with PC-3 PIP tumor cells and 3 times in 6 replicates with PC-3 flu tumor cells.

The target of the next assay is T1, PSMA (Homo sapiens, UniProt Q04609).
T1 construct: expressed in transfected cells; host or cells: PC-3 PIP (PSMA-transfected PC-3 human prostate cancer cells), from Prof; Martin Pomper
T1 sequence (Q04609 whole entry): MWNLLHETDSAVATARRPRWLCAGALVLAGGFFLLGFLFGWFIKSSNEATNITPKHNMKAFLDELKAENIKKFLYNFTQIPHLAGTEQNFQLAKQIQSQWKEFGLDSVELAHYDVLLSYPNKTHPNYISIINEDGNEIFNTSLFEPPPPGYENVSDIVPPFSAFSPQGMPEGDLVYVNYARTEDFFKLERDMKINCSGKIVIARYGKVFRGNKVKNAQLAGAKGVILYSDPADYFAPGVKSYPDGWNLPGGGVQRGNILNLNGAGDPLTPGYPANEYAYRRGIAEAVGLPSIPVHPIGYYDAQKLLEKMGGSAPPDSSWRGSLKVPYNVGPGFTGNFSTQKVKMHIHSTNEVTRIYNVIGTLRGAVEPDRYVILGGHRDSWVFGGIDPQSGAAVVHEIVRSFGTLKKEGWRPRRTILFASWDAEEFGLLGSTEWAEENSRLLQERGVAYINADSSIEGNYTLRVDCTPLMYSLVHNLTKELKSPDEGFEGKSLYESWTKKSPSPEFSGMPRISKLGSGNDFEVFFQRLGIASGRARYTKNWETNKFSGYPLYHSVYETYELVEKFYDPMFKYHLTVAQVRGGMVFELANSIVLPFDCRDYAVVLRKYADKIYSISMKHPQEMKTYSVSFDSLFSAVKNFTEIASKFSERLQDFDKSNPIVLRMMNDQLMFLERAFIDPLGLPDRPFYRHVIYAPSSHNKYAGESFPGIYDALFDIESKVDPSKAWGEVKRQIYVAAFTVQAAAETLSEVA
In words: Determination of KD values (PSMA-binding affinity). Particulars: PSMA-binding affinity of the 177Lu radioligand.

Consider `CC(C)Cc1ccc(C(C)C(=O)NCC[C@H](NC(=O)CN2CCN(CC(=O)O)CCN(CC(=O)O)CCN(CC(=O)O)CC2)C(=O)NCC2CCC(C(=O)N[C@@H](Cc3ccc4ccccc4c3)C(=O)NCCCC[C@H](NC(=O)N[C@@H](CCC(=O)O)C(=O)O)C(=O)O)CC2)cc1` (some centres unmarked) [^177Lu-Ibu-sPSMA, metal not drawn], for which the “uptake in PC-3 flu tumor cells” value in assay [1] was under 0.1%. The dissociation constant Kd on PSMA was 40 ± 5 nM.

These data come from US20220024882A1, “NOVEL TUMOR ANTIGEN BINDING AGENTS AND USES THEREOF” (ITM Isotopen Technologien München AG, priority 2018, published 2022).
